Results from US5565200A, “Pharmaceutical preparations derived from korean mistletoe” (priority 1995, dated 1996).

Tests used:
[1] = tested on: C3H Mammary adenocarcinoma 16/C; test: Growth of subcutaneous transplants of C3H mammary adenocarcinoma 16/C in B6C3F1 female mice; assay type: in vivo; settings: 98 mg/kg, i.p., qd (1,7,14,21)
Text: Anticancer activities of n-T4GEN were studied in animals bearing subcutaneous transplants of C3H Mammary adenocarcinoma 16/C. This tumor is maintained as a lung passed tumor in C3H female mice. In this example, tumors (1×10^6 cells) were transplanted (S.C.) in 18-20 g B6C3F^1 hybrid female mice. On the following day, the tumor bearing animals were randomized and separated into different treatment groups (10 mice per group). There were 15 animals in the control group who received only physiological saline during the treatment periods. […] Animals were weighed on days 5, 9 and 14 to assess toxic effects. Tumors were measured on days 21, 28 post transplants and the results are represented as tumor weights using formula [formula]

[2] = Weight change of tumor-bearing mice to assess toxic effects; assay type: in vivo; settings: 98 mg/kg, i.p., qd (1,7,14,21)
Text: Anticancer activities of n-T4GEN were studied in animals bearing subcutaneous transplants of C3H Mammary adenocarcinoma 16/C. This tumor is maintained as a lung passed tumor in C3H female mice. In this example, tumors (1×10^6 cells) were transplanted (S.C.) in 18-20 g B6C3F^1 hybrid female mice. On the following day, the tumor bearing animals were randomized and separated into different treatment groups (10 mice per group). There were 15 animals in the control group who received only physiological saline during the treatment periods. The treatments (i.p.) were started 48 hours after the transplants and given for a duration of 14 days (daily single injections). Animals were weighed on days 5, 9 and 14 to assess toxic effects. Tumors were measured on days 21, 28 post transplants and the results are represented as tumor weights using formula [formula]

Q: What does the source list for `O=c1[nH]cc(F)c(=O)[nH]1` [5Fluorouracil]?
A: Tumor Free Animals (day 93) [1]: 0/6; Tumor Inhibition % [1]: 100%; Tumor Wts (day 21) [1]: 0.00; Δ Wts (g) (day 14) [2]: +1.77 g
